Experimental data as given in patent publication US4256642A, “Pharmaceutically active 2,9-dioxatricyclo[4,3,1,0^3,7 ] decanes” (Kali-Chemie Pharma GmbH, priority 1975, dated 1981).

Tests used:
[1] = Acute toxicity LD50 i.p. (Mouse); conditions: in vivo, ip
Procedure: (§1) The in vivo activity of representative compounds of the present invention was determined as set forth in Table I below by administration to mice in pharmaceutically effective amounts.

Mouse [2] = assay: Lowered rectal temp. p.o. (Mouse); type: in vivo; conditions: po
Procedure: as §1
Lowered rectal temp. ED50 p.o.(*)

Mouse [3] = assay: Analgesia, Phenylbenzoquinone test (Writing), p.o. (Mouse); type: in vivo; conditions: for ED50: po, Phenylbenzoquinone test; for Analgesia relative to Propoxyphene: footnote (b) to analgesia ED50 p.o.
Procedure: as §1
Analgesia ED50 p.o.(a)(*)
(a) Phenylbenzoquinone test (Writing

Compound | LD50 [1] | ED50 (Mouse [2]) | ED50 (Mouse [3]) | Analgesia relative to Propoxyphene (Mouse [3])
COC1O[C@H]2O[C@]3(C)[C@@H](O)C[C@H]([C@H]2C)[C@H]13 (some centres unmarked) [compound 1246] | > 800 mg/kg | 100 mg/kg | 68 mg/kg | –
COC1O[C@H]2O[C@]3(C)[C@H](O)C[C@H]([C@H]2C)[C@H]13 (some centres unmarked) [compound 1561] | > 800 mg/kg | 100 mg/kg | 100 mg/kg | –
C[C@@H]1[C@H]2OC[C@H]3[C@@H]1C[C@H](O)[C@@]3(C)O2 [compound 2422] | 920 mg/kg | 400 mg/kg | < 50 mg/kg | –
C[C@@H]1[C@H]2OC[C@H]3[C@@H]1C[C@@H](O)[C@@]3(C)O2 [compound 2455] | 406 mg/kg | 10 mg/kg | < 10 mg/kg | ≥ Propoxyphene
CC(=O)O[C@H]1C[C@@H]2[C@H](C)[C@H]3OC[C@@H]2[C@]1(C)O3 [compound 2614] | 822 mg/kg | 100 mg/kg | < 50 mg/kg | –
C[C@@H]1[C@H]2OC[C@H]3[C@@H]1CC(=O)[C@@]3(C)O2 [compound 2619] | 1600 mg/kg | 25 mg/kg | < 10 mg/kg | ≥ Propoxyphene
CNC(=O)O[C@H]1C[C@@H]2[C@H](C)[C@H]3OC[C@@H]2[C@]1(C)O3 [compound 2624] | 739 mg/kg | 32 mg/kg | < 50 mg/kg | –
CNC(=O)O[C@@H]1C[C@@H]2[C@H](C)[C@H]3OC[C@@H]2[C@]1(C)O3 [compound 2648] | 800 mg/kg | < 100 mg/kg | < 10 mg/kg | –
